Source: patent US20140017701A1, “CHIMERIC PDK1 KINASES” (priority 2011, published 2014)

Tests used:
[1] = biological target: T1, PDK1/PKCζ chimera (Homo sapiens, UniProt O15530, F157L/I118V/I119H/L113V/Q292A/R131K/T128Q/T148C/V124I/Y288G); assay: Activity assay with PDK1/PKCζ chimera; format: biochemical; details: PDK1 50-359/PKCζ chimera, PDK1[P-P-ζ]
T1 construct: His (N); made in house; host or cells: insect cells
T1 sequence (O15530 50-359 L113V/I118V/I119H/V124I/T128Q/R131K/T148C/F157L/Y288G/Q292A): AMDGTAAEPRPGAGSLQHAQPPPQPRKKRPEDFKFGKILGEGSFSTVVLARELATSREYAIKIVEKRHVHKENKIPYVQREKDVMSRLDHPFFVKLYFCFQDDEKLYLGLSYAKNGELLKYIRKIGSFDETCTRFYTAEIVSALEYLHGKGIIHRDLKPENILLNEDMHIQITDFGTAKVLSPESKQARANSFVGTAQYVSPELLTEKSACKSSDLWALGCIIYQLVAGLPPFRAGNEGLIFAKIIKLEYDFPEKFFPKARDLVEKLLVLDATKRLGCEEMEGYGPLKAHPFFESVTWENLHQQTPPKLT
Experimental: The protein kinase activity assays were performed essentially as previously described (Engel, M. et al. Embo J 25, 5469-80 (2006)). The assays were done in a 96-well format and 4 μl aliquots spotted on P81 phospho-cellulose papers (Whatman) using epMotion 5070 (Eppendorf), washed in 0.01% phosphoric acid, dried, and then exposed and analyzed using PhosphoImager technology (FLA-9000 Starion, Fujifilm). Atypical PKC (aPKC) activity assays were performed in a total volume of 20 μl containing 50 mM Tris-HCl pH 7.5, 0.05 mg/ml BSA, 0.1% (v/v) 2-mercaptoethanol, 10 mM MgCl2, 100 μM [γ^32P]ATP (5-50 cpm/pmol), 0.003% Brij, 30-50 ng of aPKC, and MBP (10 μM) or PSRtide (100 μM) as the substrate. After 15 min pre-incubation, the kinase reaction was started by addition of 6 μl of an ATP-Mg mix. When required, lipid activator (LA) phosphatidylserine (100 ng) or PKC lipid activator mix (1×) was included in the pre-incubation. Low basal activity and consistent activation of 1-592 PKCζ and 498 PKCζ by LA was obtained when the pre-incubation time was started by addition of the whole mix on the enzyme.
The substrates were T308tide (200 μM) for PDK1, Kemptide (100 μM) for PKA, and Crosstide (100 μM) for SGK, PKB, S6K, and PRK2. The activity assays for PKCα, β, θ, and δ were performed in the presence of PKC lipid activator mix (1×) using 3 μM of histone H1 as substrate.

[2] = biological target: T2, GST-PDK1 1-556 with PIF-pocket mutated to mimic PKCz (Homo sapiens, UniProt O15530, F157L/I118V/I119H/L113V/R131K/T128Q/T148C/V124I); assay: Activity assay with full length GST-PDK1 1-556 mutated to mimic the PIF-pocket of PKCz; format: biochemical; details: without the dm mutation
T2 construct: a GST-PDK1 1-556 (full length, without the dm mutation); made in house; host or cells: HEK293 (general method for GST-fused kinases)
T2 sequence (O15530 1-556 L113V/I118V/I119H/V124I/T128Q/R131K/T148C/F157L): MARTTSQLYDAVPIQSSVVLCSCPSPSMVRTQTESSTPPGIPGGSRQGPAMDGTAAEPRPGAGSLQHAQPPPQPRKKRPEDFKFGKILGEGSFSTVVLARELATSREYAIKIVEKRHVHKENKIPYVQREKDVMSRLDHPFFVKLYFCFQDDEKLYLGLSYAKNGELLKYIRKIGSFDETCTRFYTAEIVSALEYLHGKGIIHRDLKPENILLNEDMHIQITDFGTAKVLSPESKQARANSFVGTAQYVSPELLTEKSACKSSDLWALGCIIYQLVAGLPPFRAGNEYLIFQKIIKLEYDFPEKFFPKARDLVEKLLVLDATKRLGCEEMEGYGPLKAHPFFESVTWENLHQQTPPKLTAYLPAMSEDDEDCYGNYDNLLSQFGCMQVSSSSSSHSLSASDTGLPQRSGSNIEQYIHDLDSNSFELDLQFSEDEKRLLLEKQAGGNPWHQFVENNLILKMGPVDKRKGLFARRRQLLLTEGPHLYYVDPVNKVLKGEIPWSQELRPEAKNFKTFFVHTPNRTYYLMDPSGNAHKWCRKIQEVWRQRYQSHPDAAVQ
Excerpt: Thus, non-mutated PDK1 50-359 protein and other constructs of PDK1 lacking the (dm) mutations, when mutated at the PIF-pocket to mimic the PIF-pocket of other AGC kinases, are also expected to transduce the conformational change similarly to the dmPDK1 50-359. […] The preferred construct for mutagenesis to create the chimeric proteins is dmPDK1 50-359. Also preferred is the use of PDK1 50-359 which can be produced in high quality for crystallization studies or other suitable constructs, for example PDK1 76-359 that corresponds to a sequence of aminoacids observed in the crystals of PDK1 in different crystal packings.

## Cl.O=C(O)CC(Cc1nc2cc(-c3ccccc3)ccc2[nH]1)c1ccc(Cl)cc1 (centres unmarked) [PS168]
[1]
  Effect on PDK1/PKCζ chimera activity: inhibits
[2]
  Effect on activity of GST-PDK1 1-556 mutated to mimic PIF-pocket of PKCz: inhibited
